Experimental data as given in patent publication US20100190846A1, “MICROBICIDAL AGENT AND MICROBICIDAL COMPOSITION” (priority 2006, published 2010).
≈ marks a conversion by molar mass, not a printed value.

Columns and labels:
Experiment in all cases: Agar dilution method microbicidal test
Type in all cases: cell-based
Bacillus cereus = test system: Bacillus cereus; as to Growth on agar plate: key: +: grew; −: did not grow
Description: (§1) As microbicidal test method for trans-p-coumaric acid, 3-hydroxypyridine, p-hydroxybenzaldehyde and vanillin, the agar dilution method was employed.
(§2) In agar dilution method, a solution in which a sample is dissolved is serially diluted several times, and each of the diluted sample solutions is mixed with agar medium to prepare plate agars having various sample concentration. Then bacteria is inoculated onto the plate agars. In cases where the sample has a microbicidal activity, the growth of the bacteria on the plates can be inhibited. The lowest concentration which can inhibit the growth of the bacteria is referred to as Minimum Inhibitory Concentration (MIC), thereby judging the degree of a microbicidal activity of the sample.
(§3) First, 400 mg of sample was dissolved in 1 mL of DMSO to prepare 400 mg/mL sample solution. Then 0.5 mL of this 400 mg/mL sample solution was diluted 2-fold to prepare 200 mg/mL sample solution. In the same manner, sample solutions of 100 mg/mL, 50.0 mg/mL, and 25.0 mg/mL were prepared. In addition, 300 mg/mL sample solution was prepared. Thereafter, 0.2 mL of these sample solutions each was mixed with 19.8 mL of BHI (Brain Heart Infusion Agar, Becton Dickinson, MD) medium, thereby preparing agar plates having the sample concentration of 4.0 mg/mL, 3.0 mg/mL, 2.0 mg/mL, 1.0 mg/mL, 0.5 mg/mL, and 0.25 mg/mL in dishes. […] Sterilized water was used for dissolving catechin, because catechin was insoluble in DMSO.
(§4) As test bacteria, 13 kinds of bacteria, i.e., Streptococcus pneumoniae, Streptococcus pyogenes, Enterococcus faecalis, Staphylococcus aureus, Escherichia coli, Salmonella sp., Yersinia enterocolitica, Vibrio parahaemolyticus, Pseudomonas aeruginosa, Bacillus cereus, Bacillus subtilis MB-32, Bacillus subtilis ATCC6633, and Candida sp., were used. These bacteria each was mixed with 2 mL of sterilized MHB^R liquid medium (Mueller Hinton Broth^R, Becton Dickinson, MD) to prepare bacterial suspension having turbidity 1 (bacterial concentration 10^8/mL). Previously, small test tubes were set into each cell of a grating and sterilized, and 1 mL of 13 bacterial suspensions were added into the small test tubes set in the grating, respectively. By using a microplanter (SAKUMA, model: MIT-P), 10 μL aliquot was collected from each test tube set in the grating and transferred to other test tube, and the transferred bacterial suspensions were diluted 100-fold (bacterial concentration 10^6/mL).
(§5) By using the microplanter, 10 μL (bacterial number […]) of this bacterial suspension was inoculated onto the plates containing the sample solution of various concentrations. The plates were incubated for 18 hours in an incubator at 37° C., and then a microbicidal activity of each compound was assessed.

[1] = test system: Bacillus subtilis ATCC6633; as to Growth on agar plate: key: +: grew; −: did not grow
Description: as §1, §2, §3, §4, §5

Bacillus subtilis MB-32 = test system: Bacillus subtilis MB-32; as to Growth on agar plate: key: +: grew; −: did not grow
Description: as §1, §2, §3, §4, §5

Candida sp. = test system: Candida sp. As to Growth on agar plate: key: +: grew; −: did not grow.
Description: as §1, §2, §3, §4, §5

Enterococcus faecalis = test system: Enterococcus faecalis; also: key: +: grew; −: did not grow
Description: as §1, §2, §3, §4, §5

Escherichia coli = test system: Escherichia coli; as to Growth on agar plate: key: +: grew; −: did not grow
Description: as §1, §2, §3, §4, §5

Pseudomonas aeruginosa = test system: Pseudomonas aeruginosa; as to Growth on agar plate: key: +: grew; −: did not grow
Description: as §1, §2, §3, §4, §5

Salmonella sp. = test system: Salmonella sp. As to Growth on agar plate: key: +: grew; −: did not grow.
Description: as §1, §2, §3, §4, §5

Staphylococcus aureus = test system: Staphylococcus aureus; as to Growth on agar plate: key: +: grew; −: did not grow
Description: as §1, §2, §3, §4, §5

Streptococcus pneumoniae = test system: Streptococcus pneumoniae; as to Growth on agar plate: key: +: grew; −: did not grow
Description: as §1, §2, §3, §4, §5

Streptococcus pyogenes = test system: Streptococcus pyogenes; as to Growth on agar plate: key: +: grew; −: did not grow
Description: as §1, §2, §3, §4, §5

Vibrio parahaemolyticus = test system: Vibrio parahaemolyticus; as to Growth on agar plate: key: +: grew; −: did not grow
Description: as §1, §2, §3, §4, §5

Yersinia enterocolitica = test system: Yersinia enterocolitica; as to Growth on agar plate: key: +: grew; −: did not grow
Description: as §1, §2, §3, §4, §5

[2] = BHI agar, 37° C., 18 hours, read-out: MIC

## O=Cc1ccc(O)cc1 [p-Hydroxybenzaldehyde, p-hydroxybenzaldehyde]
Bacillus cereus
  activity (in words): had an activity
Bacillus cereus; 0.25 mg/mL
  Growth on agar plate: +
Bacillus cereus; 0.5 mg/mL
  Growth on agar plate: +
Bacillus cereus; 1.0 mg/mL
  Growth on agar plate: +
Bacillus cereus; 2.0 mg/mL
  Growth on agar plate: +
Bacillus cereus; 3.0 mg/mL
  Growth on agar plate: −
Bacillus cereus; 4.0 mg/mL
  Growth on agar plate: −
Bacillus cereus; [2]
  MIC: 3000 µg/mL (≈ 24.6 mM)
[1]; ATCC6633, Bacillus subtilis ATCC 6633, BHI agar, 37° C., 18 hours, read-out: MIC
  MIC: 3000 µg/mL (≈ 24.6 mM)
[1]; Bacillus subtilis ATCC6633
  activity (in words): had an activity
[1]; Bacillus subtilis ATCC 6633, 0.25 mg/mL
  Growth on agar plate: +
[1]; Bacillus subtilis ATCC 6633, 0.5 mg/mL
  Growth on agar plate: +
[1]; Bacillus subtilis ATCC 6633, 1.0 mg/mL
  Growth on agar plate: +
[1]; Bacillus subtilis ATCC 6633, 2.0 mg/mL
  Growth on agar plate: +
[1]; Bacillus subtilis ATCC 6633, 3.0 mg/mL
  Growth on agar plate: −
[1]; Bacillus subtilis ATCC 6633, 4.0 mg/mL
  Growth on agar plate: −
Bacillus subtilis MB-32
  activity (in words): had an activity
Bacillus subtilis MB-32; 0.25 mg/mL
  Growth on agar plate: +
Bacillus subtilis MB-32; 0.5 mg/mL
  Growth on agar plate: +
Bacillus subtilis MB-32; 1.0 mg/mL
  Growth on agar plate: +
Bacillus subtilis MB-32; 2.0 mg/mL
  Growth on agar plate: +
Bacillus subtilis MB-32; 3.0 mg/mL
  Growth on agar plate: +
Bacillus subtilis MB-32; 4.0 mg/mL
  Growth on agar plate: −
Bacillus subtilis MB-32; MB32, BHI agar, 37° C., 18 hours, read-out: MIC
  MIC: 3000 µg/mL (≈ 24.6 mM)
Candida sp.
  activity (in words): had an activity
Candida sp.; 0.25 mg/mL
  Growth on agar plate: +
Candida sp.; 0.5 mg/mL
  Growth on agar plate: +
Candida sp.; 1.0 mg/mL
  Growth on agar plate: +
Candida sp.; 2.0 mg/mL
  Growth on agar plate: +
Candida sp.; 3.0 mg/mL
  Growth on agar plate: −
Candida sp.; 4.0 mg/mL
  Growth on agar plate: −
Candida sp.; [2]
  MIC: 3000 µg/mL (≈ 24.6 mM)
Enterococcus faecalis; 0.25 mg/mL
  Growth on agar plate: +
Enterococcus faecalis; 0.5 mg/mL
  Growth on agar plate: +
Enterococcus faecalis; 1.0 mg/mL
  Growth on agar plate: +
Enterococcus faecalis; 2.0 mg/mL
  Growth on agar plate: +
Enterococcus faecalis; 3.0 mg/mL
  Growth on agar plate: +
Enterococcus faecalis; 4.0 mg/mL
  Growth on agar plate: +
Escherichia coli
  activity (in words): had an activity
Escherichia coli; 0.25 mg/mL
  Growth on agar plate: +
Escherichia coli; 0.5 mg/mL
  Growth on agar plate: +
Escherichia coli; 1.0 mg/mL
  Growth on agar plate: +
Escherichia coli; 2.0 mg/mL
  Growth on agar plate: −
Escherichia coli; 3.0 mg/mL
  Growth on agar plate: −
Escherichia coli; 4.0 mg/mL
  Growth on agar plate: −
Escherichia coli; [2]
  MIC: 2000 µg/mL (≈ 16.4 mM)
Pseudomonas aeruginosa
  activity (in words): had an activity
Pseudomonas aeruginosa; 0.25 mg/mL
  Growth on agar plate: +
Pseudomonas aeruginosa; 0.5 mg/mL
  Growth on agar plate: +
Pseudomonas aeruginosa; 1.0 mg/mL
  Growth on agar plate: +
Pseudomonas aeruginosa; 2.0 mg/mL
  Growth on agar plate: −
Pseudomonas aeruginosa; 3.0 mg/mL
  Growth on agar plate: −
Pseudomonas aeruginosa; 4.0 mg/mL
  Growth on agar plate: −
Pseudomonas aeruginosa; [2]
  MIC: 2000 µg/mL (≈ 16.4 mM)
Salmonella sp.
  activity (in words): had an activity
Salmonella sp.; 0.25 mg/mL
  Growth on agar plate: +
Salmonella sp.; 0.5 mg/mL
  Growth on agar plate: +
Salmonella sp.; 1.0 mg/mL
  Growth on agar plate: +
Salmonella sp.; 2.0 mg/mL
  Growth on agar plate: −
Salmonella sp.; 3.0 mg/mL
  Growth on agar plate: −
Salmonella sp.; 4.0 mg/mL
  Growth on agar plate: −
Salmonella sp.; [2]
  MIC: 2000 µg/mL (≈ 16.4 mM)
Staphylococcus aureus
  activity (in words): had an activity
Staphylococcus aureus; 0.25 mg/mL
  Growth on agar plate: +
Staphylococcus aureus; 0.5 mg/mL
  Growth on agar plate: +
Staphylococcus aureus; 1.0 mg/mL
  Growth on agar plate: +
Staphylococcus aureus; 2.0 mg/mL
  Growth on agar plate: +
Staphylococcus aureus; 3.0 mg/mL
  Growth on agar plate: −
Staphylococcus aureus; 4.0 mg/mL
  Growth on agar plate: −
Staphylococcus aureus; [2]
  MIC: 3000 µg/mL (≈ 24.6 mM)
Streptococcus pneumoniae
  activity (in words): had an activity
Streptococcus pneumoniae; 0.25 mg/mL
  Growth on agar plate: +
Streptococcus pneumoniae; 0.5 mg/mL
  Growth on agar plate: +
Streptococcus pneumoniae; 1.0 mg/mL
  Growth on agar plate: +
Streptococcus pneumoniae; 2.0 mg/mL
  Growth on agar plate: −
Streptococcus pneumoniae; 3.0 mg/mL
  Growth on agar plate: −
Streptococcus pneumoniae; 4.0 mg/mL
  Growth on agar plate: −
Streptococcus pneumoniae; [2]
  MIC: 2000 µg/mL (≈ 16.4 mM)
Streptococcus pyogenes
  activity (in words): had an activity
Streptococcus pyogenes; 0.25 mg/mL
  Growth on agar plate: +
Streptococcus pyogenes; 0.5 mg/mL
  Growth on agar plate: +
Streptococcus pyogenes; 1.0 mg/mL
  Growth on agar plate: +
Streptococcus pyogenes; 2.0 mg/mL
  Growth on agar plate: −
Streptococcus pyogenes; 3.0 mg/mL
  Growth on agar plate: −
Streptococcus pyogenes; 4.0 mg/mL
  Growth on agar plate: −
Streptococcus pyogenes; [2]
  MIC: 2000 µg/mL (≈ 16.4 mM)
Vibrio parahaemolyticus
  activity (in words): had an activity
Vibrio parahaemolyticus; 0.25 mg/mL
  Growth on agar plate: +
Vibrio parahaemolyticus; 0.5 mg/mL
  Growth on agar plate: +
Vibrio parahaemolyticus; 1.0 mg/mL
  Growth on agar plate: +
Vibrio parahaemolyticus; 2.0 mg/mL
  Growth on agar plate: −
Vibrio parahaemolyticus; 3.0 mg/mL
  Growth on agar plate: −
Vibrio parahaemolyticus; 4.0 mg/mL
  Growth on agar plate: −
Vibrio parahaemolyticus; [2]
  MIC: 2000 µg/mL (≈ 16.4 mM)
Yersinia enterocolitica
  activity (in words): strong microbicidal activity
Yersinia enterocolitica; 0.25 mg/mL
  Growth on agar plate: +
Yersinia enterocolitica; 0.5 mg/mL
  Growth on agar plate: −
Yersinia enterocolitica; 1.0 mg/mL
  Growth on agar plate: −
Yersinia enterocolitica; 2.0 mg/mL
  Growth on agar plate: −
Yersinia enterocolitica; 3.0 mg/mL
  Growth on agar plate: −
Yersinia enterocolitica; 4.0 mg/mL
  Growth on agar plate: −
Yersinia enterocolitica; [2]
  MIC: 500 µg/mL (≈ 4.09 mM)
